Results on six compounds are retold here after US5708000A, “N4-substituted cytosinyl 1,3-oxathiolane nucleoside analogues, and their antiviral activity” (Laboratoire Laphal, priority 1994, dated 1998).

Structures are written as SMILES. Like-named read-outs stand apart in the source and are kept apart here.

The test system of test [1] is HIV-1 virus (BRU) in MT4 cells. Nature of the test: Anti-HIV test: inhibition of HIV-1 replication (syncitia formation) in infected MT4 cells. The format is cell-based. The source says: The evaluation of the antiviral action is based on the study of cytopathogenic effect of HIV-1 Virus on the cell line MT4. The cell line MT4 has as an origin T cells isolated from a patient, transformed by the […]. The cytopathogenic effect of HIV-1 virus is shown by the formation of multinucleated giant cells called <> visible under the microscope. This effect of HIV-1 is observed 4 to 5 days after infection. It is followed with the death of cells.
The cytopathogenic effect is directly correlated to the infection of the cells by the virus, to its intracellular replication and to the expression of viral antigens by the cells. An inhibition of this effect thus corresponds to an inhibition of the multiplication of HIV-1 virus.
The MT4 cells are maintained at 3.10^5 cells/ml in a RPMI 1640 medium : 10% of decomplemented fetal calf serum for 30 mn at 56° C. (hormons, serum growth factors . . . ), 1% glutamine, 1% penicillin streptomycin and 2 μg/ml Polyren which promotes the viral adhesion to the cells.
The action of the treatment by the anti-viral agent is continuous. In fact this effect is present before during and after the viral infection. Successive dilutions are performed in the 10% fetal calf serum to be able to cultivate the MT4 cells for 8 days and to observe the formation of syncithias.
Before infection : 3×10^6 cells/100 μl are distributed in a microtiter plate with 96 wells and centrifugated for 3 min. at 2000 rpm (rounds per minute). The pellet is then pre-incubated for 1 hour at 37° C., with 100 μl of various concentrations of the anti-viral agent to be tested.
Infection : The infection is achieved in microwells while adding 100 TCIU (infection units) of HIV-1 virus (this titer of HIV-1 virus is determined as to induce the formation of syncithias in 4 or 5 days). The anti-viral agent is always present at the time of infection and dilution of the virus at 100 TCIU.
After infection : After incubation for 1 hour at 37° C., the MT4 cells are washed three times with RPMI 1640 medium and cultured on account of 3.10^5 cells per milliliter of each of the concentration of the compounds to be tested on plates of 24 wells. When passing at day D3 the MT4 cells are diluted to 1/3. The concentration of the anti-viral agent is maintained. Each day occurrence of syncithia is observed under the microscope to detect any optional delay with respect to the controls HIV-1. At day D8 the determination of reverse transcriptase is carried out. When the cells are not infected thus it is a protection by the tested anti-viral agent.
The compounds the synthesis of which has been described in this patent application and the related structures given in the previous prior art, have an affect on the inhibition of the replication of BRU HIV-1 virus (BRU beeing the vital strain experienced) in the case where the infected cells are of the type MT4.
In the table I they have been described the results of the tests. Column 1 provides the names of the most representative studied compounds and in column 2 they are reported the so-called IC50 values (concentration of the component giving a 50% inhibition of the replication of HIV in the infected MT4 cells, measured at day D7 after infection). In observing and counting the number of formed syncitia in relation with that counted in the case of infected MT4 cells but untreated with antiviral compound, the value IC50 is determined.

Test [2] relates to duck hepatitis B virus (DHBV). Description: Anti-HBV test: effect on the replication of the duck hepatitis B virus (DHBV) in infected duck hepatocytes (viral DNA). In kind it is cell-based. Particulars: Hepatocyte, 240 h, read-out: IC50, inhibition of the replication of DHBV virus. The text has this: Among the several methodologies used for evaluating the activity of compounds on Hepatitis B virus (HBV), the pattern of Hepatitis B virus of the duck (Duck HBV) has been utilized (J. Med. Virology (1990) 31 82-89; Viral Hepatitis and Liver disease (1988) 506-509; Hepatology (1989) 10 186-191). The material of culture to test <<in vitro>> the anti HBV activity of the compounds is made of duck hepatocytes infected by the duck Hepatitis B virus (DHBV) (Antimicrob. Agents Chemother. (1989) 33 336-339; J. Med. Virology 40,59-64; Antivir Res. (1993) 21, 155-171; Antimicrob. Agents Chemother. (1993) 37 1539-1542). Indeed the Hepatitis B virus of the duck is recognized as being very close to the human hepatitis B virus (Viral Hepatitis and Liver Disease (1988) 526-529. Antiviral Research (1987) 8189-199). Under standardized conditions (Virology (1989) 171 564-572) the cultures of duck hepatocytes allow the complete replication of DHBV. The antiviral activity of the tested compounds has been measured as a function of the amount of viral DNA produced during 10 days of culture of the infected hepatocytes.
A young male duck 3 weeks old, affected by DHBV, is used for the production of hepatocytes. The duck is killed under anesthesia and the isolation of hepatocytes is carried out using the methodology of Guillouzou (Research in isolated and cultured hepatocytes, J. Libbey Eurotex Ltd / INSERM, 1986). The cells are cultured in the Leibowitz's medium and 5 μg/ml bovine insuline, 7×10^-5 mole cortisone hemisuccinate and 1,5% dimethylsulfoxide (DMSO) are added thereto. The density of the cells is 8×10^6 cells, they are sprayed in culture boxes of 100×20 mm. The tested compounds are added to the culture after the spread out of the cells. The medium is renewed every day, during 10 days. The production of viral DNA of the duck hepatitis B virus in the cells surpernatant is determined by means of hybridation method "Dot blot" according to Fourel and al. (Viral Hepatitis and Liver Disease, 1988, 506-509; Hepatology, 1989, 10, 186-191). Inhibition is expressed as a percentage of the DNA amount present on the supernatant of cells with regard to a culture infected by DHBV untreated with a nucleosidic derivative.
The most representative described compounds have been tested for their effect on the replication of the duck virus HBV (DHBV) along the protocol exposed in the experimental part of this document.

Setting [3] is: Human immunodeficiency virus 1, BRU HIV-1, MT4 cells, syncitia count, day D7 after infection, read-out: IC50 (concentration giving a 50% inhibition of the replication of HIV in the infected MT4 cells).
Where [4] appears, read: duck hepatocytes infected by DHBV, viral DNA in supernatant, dot blot, 10 days of culture.

For the compound `C[n+]1cc(C(=O)Nc2ccn([C@@H]3CS[C@H](CO)O3)c(=O)n2)cc2ccccc21` (relative stereo) [Compound 9, cis 2-hydroxymethyl 5-[N^4-(1"-methyl 3"-quinolinyicarbonyl)cytosin-1'yl]-1,3-oxathiolane], the IC50 in test [1] (Human immunodeficiency virus 1, MT4, read-out: IC50 (concentration giving a 50% inhibition of the replication of HIV in the infected MT4 cells)) is above 100000 nM; in test [2], 2000 nM.

Turning to `O=C(Nc1ccn([C@@H]2CS[C@H](CO)O2)c(=O)n1)c1cccnc1Nc1cccc(C(F)(F)F)c1` (relative stereo) [Compound 11, cis 2-hydroxymethyl-5-[N^4-(2-(a,a,a-trifluoro-m-toluidino)nicotinyl)-cytosin-1'yl]-1,3-oxathiolane], the IC50 in test [1] (setting [3]) was below 100000 nM. Consider `CN1C=C(C(=O)Nc2ccn([C@@H]3CS[C@H](CO)O3)c(=O)n2)Cc2ccccc21` (relative stereo) [Compound 10, cis 2-hydroxymethyl 5-[N^4-(1"-methyl 1", 4"-dihydro 3"-quinolinylcarbonyl)cytosin-1'yl]-1,3-oxathiolane], for which the IC50 in test [1] (setting [3]) is 1000 to 10000 nM; in test [2] (setting [4]) it was 2000 nM. For the compound `O=C(Nc1ccn([C@@H]2CS[C@H](CO)O2)c(=O)n1)c1cccnc1` (relative stereo) [Compound 2, Cis 2-(hydroxymethyl)-5 [N^4-(3"-pyridinylcarbonyl)cytosin-1'-yl]-1,3-oxathiolan], the IC50 in test [1] (setting [3]) is 100 to 1000 nM; in test [2] (setting [4]) it was 2000 ± 500 nM.

On to `O=C(Nc1ccn([C@@H]2CS[C@H](CO)O2)c(=O)n1)c1cnc2ccccc2c1` (relative stereo) [Compound 8], for which the IC50 in test [1] (setting [3]) amounted to 10000 nM; in test [2] (setting [4]), 2000 nM. The corresponding values for `Nc1ccn([C@H]2CS[C@@H](CO)O2)c(=O)n1` [BCH-189, 2',3'-dideoxy 3'-thiacytidine, reference compound] are 1000 nM and 1000 ± 500 nM.
